Two compounds from patent publication US9169496B2, “Method for the enzymatic production of butadiene” (Scientist of Fortune, S.A., priority 2011, dated 2015) can be followed below.

The subject of the assay is 4-methyl-5-(2-hydroxyethyl)thiazole kinase from E. coli. Kind of assay: Kinetic parameters of crotyl alcohol phosphorylation (spectrophotometric assay of Example 2). The assay is classed as biochemical. The settings on record: crotyl alcohol phosphorylation by purified E. coli kinase. On the procedure: The release of ADP that is associated with crotyl alcohol phosphorylation was quantified using the pyruvate kinase/lactate dehydrogenase coupled assay (FIG. 5). The purified 4-methyl-5-(2-hydroxyethyl)thiazole kinases from Escherichia coli (SEQ ID NO:2), Bacillus subtilis (SEQ ID NO:1), Rhizobium leguminosarum (SEQ ID NO:3) were evaluated for their ability to phosphorylate crotyl alcohol releasing ADP. The studied enzymatic reaction was carried out under the following conditions at 37° C.: • 50 mM Tris-HCl pH 7.5 • 10 mM MgCl2 • 100 mM KCl • 5 mM ATP • 0.4 mM NADH • 1 mM Phosphoenolpyruvate • 3 U/ml Lactate dehydrogenase • 1.5 U/ml Pyruvate kinase • 50 mM crotyl alcohol, mixture cis and trans • The pH was adjusted to 7.5
Each assay was started by addition of a particular enzyme at a concentration 0.05 mg/ml and the disappearance of NADH was monitored by following the absorbance at 340 nm.
Kinetic parameters of crotyl alcohol phosphorylation were determined using the spectrophotometric assay described in Example 2.

Molecules are shown by their SMILES.

The term Km denotes the concentration of substrate that gives half-maximal velocity. `C/C=C/CO` [Trans crotyl alcohol]: the Km is 30 mM.

As to `C/C=C\CO` [Cis crotyl alcohol], the Km was determined as 13.6 mM.
